These results are taken from patent US8280710B2, “Method for determining thermal stability of collagen or collagen-like peptide” (University of Medicine and Dentistry of New Jersey, priority 2005, dated 2012).

Non-standard residues stand in square brackets, D forms with d. Residues, ends and D or L forms follow the SMILES beside them. Hyp = O=C(O)[C@@H]1C[C@@H](O)CN1

The conditions of data set [1]: peptide of Table 3, defined standard conditions. How it is done: The propensity measurements for all 20 amino acid residues in the Xaa1 position in a Gly-Xaa1-Hyp context and all 20 amino acid residues in the Xaa2 position in a Gly-Pro-Xaa2 context were determined by measuring thermal stability of host-guest peptides (Persikov, et al. (2000) supra).
The Tm values of all host-guest peptides were measured under a set of standard conditions, with c=1 mg/ml in phosphate-buffered saline, pH 7.0, and with a heating rate average of 0.1° C./minute (Persikov, et al. (2004) supra).

Data set [2] can be described thus: Method for predicting global Tm of collagen peptides from amino acid sequence. Particulars: observed minus predicted, peptides of Table 3. How it is done:
The global thermal stability of homotrimeric triple helical peptides with length of at least 6 tripeptide units and, in most cases, containing 10 tripeptide units was determined as follows.
For the total number of triplets n in a given peptide, the base Tm^0(n) for (Pro-Hyp-Gly) or (Pro-Pro-Gly)n was calculated from the length dependence (Equation 1), including any effect of blocking groups;
The melting temperature value was decreased for every triplet in the sequence that was not Gly-Pro-Hyp, subtracting a value of ΔTm^GXY (Table 1). The N-terminal and C-terminal tripeptide units were excluded from the calculation due to the staggering of the chains and the disorder for the peptide ends (Bella et al. (1994) supra; Li, et al. (1993) Biochemistry 32:7377-7387; Kramer, et al. (2001) J. Mol. Biol. 301:1191-1205).
The resulting value for the peptide melting temperature was adjusted using the ΔTm^int values for interactions between neighboring tripeptides (Table 2).
The method was formulated as follows.
To extrapolate the dependence of the Tm of the host peptides on peptide length, the experimental values for (Pro-Hyp-Gly)n and (Pro-Pro-Gly)n versus n, where n is the number of tripeptide units, were fit to the exponential decay function
[formula] where Tm^0(n) is defined as the base thermal stability of the repeating polytripeptide standard, Tm^max is the maximum melting temperature, and the constant n0 represents the length of the repeating peptide with Tm=0.

Regarding `CC(=O)NCC(=O)N1CCC[C@H]1C(=O)N1C[C@H](O)C[C@H]1C(=O)NCC(=O)N1CCC[C@H]1C(=O)N1C[C@H](O)C[C@H]1C(=O)NCC(=O)N[C@@H](CCCNC(=N)N)C(=O)N1C[C@H](O)C[C@H]1C(=O)NCC(=O)N[C@@H](CCCNC(=N)N)C(=O)N[C@@H](CCCCN)C(=O)NCC(=O)N[C@@H](CCCNC(=N)N)C(=O)N1C[C@H](O)C[C@H]1C(=O)NCC(=O)N1CCC[C@H]1C(=O)N1C[C@H](O)C[C@H]1C(=O)NCC(=O)N1CCC[C@H]1C(=O)N1C[C@H](O)C[C@H]1C(=O)NCC(=O)N1CCC[C@H]1C(=O)N1C[C@H](O)C[C@H]1C(=O)NCC(=O)N1CCC[C@H]1C(=O)N1C[C@H](O)C[C@H]1C(=O)NCC(=O)N1CCC[C@H]1C(=O)N1C[C@H](O)C[C@H]1C(=O)NCC(N)=O` [AchE-P126 (r), Ac-GPO-GPO-GRO-GRK-GRO-(GPO)5-G-NH2] (Ac-GP[Hyp]GP[Hyp]GR[Hyp]GRKGR[Hyp]GP[Hyp]GP[Hyp]GP[Hyp]GP[Hyp]GP[Hyp]G-NH2), the “Tm^obs” value in data set [1] was 30.0 °C. The ΔTm in data set [2] is −2.6 °C.
In the same order, the values of `CC(=O)NCC(=O)N1CCC[C@H]1C(=O)N1C[C@H](O)C[C@H]1C(=O)NCC(=O)N1CCC[C@H]1C(=O)N1C[C@H](O)C[C@H]1C(=O)NCC(=O)N[C@@H](CCCNC(=N)N)C(=O)N1C[C@H](O)C[C@H]1C(=O)NCC(=O)N[C@@H](CCCCN)C(=O)N[C@@H](CCCNC(=N)N)C(=O)NCC(=O)N[C@@H](CCCCN)C(=O)N[C@@H](CCC(N)=O)C(=O)NCC(=O)N[C@@H](CCC(N)=O)C(=O)N[C@@H](CCCCN)C(=O)NCC(=O)N1CCC[C@H]1C(=O)N1C[C@H](O)C[C@H]1C(=O)NCC(=O)N1CCC[C@H]1C(=O)N1C[C@H](O)C[C@H]1C(=O)NCC(=O)N1CCC[C@H]1C(=O)N1C[C@H](O)C[C@H]1C(=O)NCC(=O)N1CCC[C@H]1C(=O)N1C[C@H](O)C[C@H]1C(=O)NCC(N)=O` [AchE-P231 (r), Ac-GPO-GPO-GRO-GKR-GKQ-GQK-(GPO)4-G-NH2] (Ac-GP[Hyp]GP[Hyp]GR[Hyp]GKRGKQGQKGP[Hyp]GP[Hyp]GP[Hyp]GP[Hyp]G-NH2) are 23.9 °C and −1.9 °C.
In the same order, the values of `CC(=O)NCC(=O)N1CCC[C@H]1C(=O)N1C[C@H](O)C[C@H]1C(=O)NCC(=O)N[C@@H](CCCNC(=N)N)C(=O)N1C[C@H](O)C[C@H]1C(=O)NCC(=O)N[C@@H](CCCNC(=N)N)C(=O)N[C@@H](CCCNC(=N)N)C(=O)NCC(=O)N[C@@H](CCCNC(=N)N)C(=O)N1C[C@H](O)C[C@H]1C(=O)NCC(=O)N[C@@H](CC(C)C)C(=O)N[C@@H](CCCCN)C(=O)NCC(=O)N[C@@H](CCC(=O)O)C(=O)N[C@@H](CCC(N)=O)C(=O)NCC(=O)N1CCC[C@H]1C(=O)N1C[C@H](O)C[C@H]1C(=O)NCC(=O)N1CCC[C@H]1C(=O)N1C[C@H](O)C[C@H]1C(=O)NCC(=O)N1CCC[C@H]1C(=O)N1C[C@H](O)C[C@H]1C(=O)NCC(=O)N1CCC[C@H]1C(=O)N1C[C@H](O)C[C@H]1C(=O)NCC(=O)N[C@@H](Cc1ccc(O)cc1)C(N)=O` [C1qA-15, Ac-GPO-GRO-GRR-GRO-GLK-GEQ-(GPO)4-GY-NH2] (Ac-GP[Hyp]GR[Hyp]GRRGR[Hyp]GLKGEQGP[Hyp]GP[Hyp]GP[Hyp]GP[Hyp]GY-NH2) are 23.3 °C and −7.4 °C.
Turning to `CC[C@H](C)[C@H](NC(=O)CNC(=O)[C@@H]1C[C@@H](O)CN1C(=O)[C@@H]1CCCN1C(=O)CNC(C)=O)C(=O)N[C@@H](CCCNC(=N)N)C(=O)NCC(=O)N1CCC[C@H]1C(=O)N[C@@H](CCCCN)C(=O)NCC(=O)N[C@@H](CCC(N)=O)C(=O)N[C@@H](CCCCN)C(=O)NCC(=O)N[C@@H](CCC(=O)O)C(=O)N1C[C@H](O)C[C@H]1C(=O)NCC(=O)N[C@@H](CC(C)C)C(=O)N1C[C@H](O)C[C@H]1C(=O)NCC(=O)N1CCC[C@H]1C(=O)N1C[C@H](O)C[C@H]1C(=O)NCC(=O)N1CCC[C@H]1C(=O)N1C[C@H](O)C[C@H]1C(=O)NCC(=O)N1CCC[C@H]1C(=O)N1C[C@H](O)C[C@H]1C(=O)NCC(=O)N1CCC[C@H]1C(=O)N1C[C@H](O)C[C@H]1C(=O)NCC(=O)N[C@@H](Cc1ccc(O)cc1)C(N)=O` [C1qC-67, Ac-GPO-GIR-GPK-GQK-GEO-GLO-(GPO)4-GY-NH2] (Ac-GP[Hyp]GIRGPKGQKGE[Hyp]GL[Hyp]GP[Hyp]GP[Hyp]GP[Hyp]GP[Hyp]GY-NH2), the “Tm^obs” value in data set [1] was 28.4 °C. For the same compound, the shift in melting temperature (ΔTm) in data set [2] is −1.4 °C.
For `CC[C@H](C)[C@H](NC(=O)CNC(C)=O)C(=O)N[C@@H](CC(N)=O)C(=O)NCC(=O)N[C@@H](Cc1ccccc1)C(=O)N1C[C@H](O)C[C@H]1C(=O)NCC(=O)N[C@@H](CCCCN)C(=O)N[C@@H](CC(=O)O)C(=O)NCC(=O)N[C@@H](CCCNC(=N)N)C(=O)N[C@@H](CC(=O)O)C(=O)NCC(=O)N[C@H](C(=O)N[C@@H](CCCCN)C(=O)NCC(=O)N[C@@H](CCC(=O)O)C(=O)N[C@@H](CCCCN)C(=O)NCC(=O)N[C@@H](CCC(=O)O)C(=O)N1C[C@H](O)C[C@H]1C(=O)NCC(=O)N1CCC[C@H]1C(=O)N1C[C@H](O)C[C@H]1C(=O)NCC(=O)N1CCC[C@H]1C(=O)N1C[C@H](O)C[C@H]1C(=O)NCC(=O)N1CCC[C@H]1C(=O)N1C[C@H](O)C[C@H]1C(=O)NCC(=O)N1CCC[C@H]1C(=O)N1C[C@H](O)C[C@H]1C(=O)NCC(=O)NCC(N)=O)[C@@H](C)O` [MBL 42-61, Ac-GIN-GFO-GKD-GRD-GTK-GEK-GEO-(GPO)4-GG-NH2] (Ac-GINGF[Hyp]GKDGRDGTKGEKGE[Hyp]GP[Hyp]GP[Hyp]GP[Hyp]GP[Hyp]GG-NH2), in data set [1], the “Tm^obs” value turned out to be 23.0 °C. In data set [2], the ΔTm is −2.2 °C.
In the same order, the values of `CC(=O)NCC(=O)N1CCC[C@H]1C(=O)N1C[C@H](O)C[C@H]1C(=O)NCC(=O)N1CCC[C@H]1C(=O)N1C[C@H](O)C[C@H]1C(=O)NCC(=O)N1CCC[C@H]1C(=O)N1C[C@H](O)C[C@H]1C(=O)NCC(=O)N[C@@H](C)C(=O)N[C@@H](CCCCN)C(=O)NCC(=O)N[C@@H](CC(=O)O)C(=O)N[C@@H](C)C(=O)NCC(=O)N1CCC[C@H]1C(=O)N1C[C@H](O)C[C@H]1C(=O)NCC(=O)N1CCC[C@H]1C(=O)N[C@@H](C)C(=O)NCC(=O)N1CCC[C@H]1C(=O)N1C[C@H](O)C[C@H]1C(=O)NCC(=O)N1CCC[C@H]1C(=O)N1C[C@H](O)C[C@H]1C(=O)NCC(=O)N1CCC[C@H]1C(=O)N1C[C@H](O)C[C@H]1C(=O)NCC(=O)N[C@@H](Cc1ccc(O)cc1)C(N)=O` [T1-655, Ac-(GPO)3-GAK-GDA-GPO-GPA-(GPO)3-GY-NH2] (Ac-GP[Hyp]GP[Hyp]GP[Hyp]GAKGDAGP[Hyp]GPAGP[Hyp]GP[Hyp]GP[Hyp]GY-NH2) are 42.8 °C and 0.1 °C.
Take `CC(=O)NCC(=O)N1CCC[C@H]1C(=O)N[C@@H](C)C(=O)NCC(=O)N1CCC[C@H]1C(=O)N[C@@H](C)C(=O)NCC(=O)N1CCC[C@H]1C(=O)N[C@H](C(=O)NCC(=O)N1CCC[C@H]1C(=O)N[C@@H](C)C(=O)NCC(=O)N[C@@H](C)C(=O)N[C@@H](CCCNC(=N)N)C(=O)NCC(=O)N1CCC[C@H]1C(=O)N[C@@H](C)C(=O)NCC(=O)N1CCC[C@H]1C(=O)N1C[C@H](O)C[C@H]1C(=O)NCC(=O)N1CCC[C@H]1C(=O)N[C@@H](C)C(=O)NCC(=O)N1CCC[C@H]1C(=O)N1C[C@H](O)C[C@H]1C(=O)NCC(=O)N1CCC[C@H]1C(=O)N1C[C@H](O)C[C@H]1C(=O)NCC(=O)N[C@H](C(N)=O)C(C)C)C(C)C` [T1-892 (O24A), Ac-(GPA)2-GPV-GPA-GAR-GPA-GPO-GPA-(GPO)2-GV-NH2] (Ac-GPAGPAGPVGPAGARGPAGP[Hyp]GPAGP[Hyp]GP[Hyp]GV-NH2): the “Tm^obs” value in data set [1] was determined as 23.2 °C. In data set [2], the ΔTm was 1.4 °C.

One may read the ΔTm as the shift of the melting midpoint relative to a reference.
